{"source": "paper PMC11999280", "about": "“Design and screening of novel endosomal escape compounds that enhance functional delivery of oligonucleotides in vitro” (Molecular Therapy. Nucleic Acids, 2025)", "assay_type_in_all_cases": "cell-based", "key": {"[1]": {"tested_on": "mCherry-GAL9 expressing NCI-H358 cells", "assay": "GAL9 recruitment assay, NCI-H358", "details": "calculated mean from >3 independent exp.", "summary_of_the_method": "(§1)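 Stable mCherry-GAL9 lines; 24 h post-seeding, compound dosed as dose-response. Endpoint: PBS wash, 4% PFA fix (RT), Hoechst 33342 1 μg/mL. Confocal imaging ×20w, GAL9 puncta quantified. N = 3, duplicate wells.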"}, "[2]": {"tested_on": "mCherry-GAL9 expressing HeLa cells", "assay": "GAL9 recruitment assay, HeLa", "details": "calculated mean from >3 independent exp.", "summary_of_the_method": "as §1"}, "[3]": {"tested_on": "mCherry-GAL9 expressing HEK293 cells", "assay": "GAL9 recruitment assay, HEK293", "details": "calculated mean from >3 independent exp.", "summary_of_the_method": "as §1"}, "[4]": {"tested_on": "mCherry-GAL9 expressing HepG2 cells", "assay": "GAL9 recruitment assay, HepG2", "details": "calculated mean from >3 independent exp.", "summary_of_the_method": "as §1"}, "[5]": {"tested_on": "mCherry-GAL9 expressing 16HBE cells", "assay": "GAL9 recruitment assay, 16HBE", "details": "calculated mean from >3 independent exp.", "summary_of_the_method": "as §1"}, "[6]": {"tested_on": "mCherry-GAL9 expressing U2OS cells", "assay": "GAL9 recruitment assay, U2OS", "details": "calculated mean from >3 independent exp.", "summary_of_the_method": "as §1"}, "[7]": {"tested_on": "mCherry-GAL9 expressing HuH7 cells", "assay": "GAL9 recruitment assay, HuH7", "details": "calculated mean from >3 independent exp.", "summary_of_the_method": "as §1"}, "[8]": {"tested_on": "mCherry-GAL9 expressing SHSY5Y cells", "assay": "GAL9 recruitment assay, SHSY5Y", "details": "calculated mean from >3 independent exp.", "summary_of_the_method": "as §1"}, "[9]": {"tested_on": "HeLa_Luc705 cells (pLuc/705 splice-switching reporter)", "assay": "Functional 705-SSO delivery, luciferase splice-switching assay", "details": "HeLa-Luc705 + 2 µM SSO, mean from >3 independent experiments", "summary_of_the_method": "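Cells seeded at 10,000/well were pre-incubated 24 h with 1–2 μM 2′-O-methyl phosphorothioate 705-SSO, then exposed to endosomal escape enhancer at the stated concentrations. After 24 h, cells were lysed in 0.1% Triton X-100 and firefly luciferase luminescence was read as the splice-correction signal. LF2000 lipofection with 100–200 nM SSO served as transfection control.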"}}}
{"smiles": "COc1nn(C2CCNCC2)cc1Nc1ncc(C(F)(F)F)c(-c2c[nH]c3ccccc23)n1", "note": "[EEE24]", "values": [{"measurement": "Gal9 response compared to reference", "setting": "[1]; EEE 0.31 µM", "value": 0.019}, {"measurement": "Gal9 response compared to reference", "setting": "[1]; EEE 0.62 µM", "value": 0.018}, {"measurement": "Gal9 response compared to reference", "setting": "[1]; EEE 1.25 µM", "value": 0.016}, {"measurement": "Gal9 response compared to reference", "setting": "[1]; EEE 2.5 µM", "value": 0.015}, {"measurement": "Gal9 response compared to reference", "setting": "[1]; EEE 5 µM", "value": 0.021}, {"measurement": "Gal9 response compared to reference", "setting": "[1]; EEE 10 µM", "value": 0.115}, {"measurement": "Gal9 response compared to reference", "setting": "[2]; EEE 0.31 µM", "value": 0.005}, {"measurement": "Gal9 response compared to reference", "setting": "[2]; EEE 0.62 µM", "value": 0.005}, {"measurement": "Gal9 response compared to reference", "setting": "[2]; EEE 1.25 µM", "value": 0.004}, {"measurement": "Gal9 response compared to reference", "setting": "[2]; EEE 2.5 µM", "value": 0.004}, {"measurement": "Gal9 response compared to reference", "setting": "[2]; EEE 5 µM", "value": 0.008}, {"measurement": "Gal9 response compared to reference", "setting": "[2]; EEE 10 µM", "value": 0.207}, {"measurement": "Gal9 response compared to reference", "setting": "[3]; EEE 0.31 µM", "value": 0.024}, {"measurement": "Gal9 response compared to reference", "setting": "[3]; EEE 0.62 µM", "value": 0.019}, {"measurement": "Gal9 response compared to reference", "setting": "[3]; EEE 1.25 µM", "value": 0.014}, {"measurement": "Gal9 response compared to reference", "setting": "[3]; EEE 2.5 µM", "value": 0.017}, {"measurement": "Gal9 response compared to reference", "setting": "[3]; EEE 5 µM", "value": 0.100}, {"measurement": "Gal9 response compared to reference", "setting": "[3]; EEE 10 µM", "value": 0.464}, {"measurement": "Gal9 response compared to reference", "setting": "[4]; EEE 0.31 µM", "value": 0.010}, {"measurement": "Gal9 response compared to reference", "setting": "[4]; EEE 0.62 µM", "value": 0.009}, {"measurement": "Gal9 response compared to reference", "setting": "[4]; EEE 1.25 µM", "value": 0.009}, {"measurement": "Gal9 response compared to reference", "setting": "[4]; EEE 2.5 µM", "value": 0.008}, {"measurement": "Gal9 response compared to reference", "setting": "[4]; EEE 5 µM", "value": 0.008}, {"measurement": "Gal9 response compared to reference", "setting": "[4]; EEE 10 µM", "value": 0.104}, {"measurement": "Gal9 response compared to reference", "setting": "[5]; EEE 0.31 µM", "value": 0.010}, {"measurement": "Gal9 response compared to reference", "setting": "[5]; EEE 0.62 µM", "value": 0.011}, {"measurement": "Gal9 response compared to reference", "setting": "[5]; EEE 1.25 µM", "value": 0.011}, {"measurement": "Gal9 response compared to reference", "setting": "[5]; EEE 2.5 µM", "value": 0.014}, {"measurement": "Gal9 response compared to reference", "setting": "[5]; EEE 5 µM", "value": 0.035}, {"measurement": "Gal9 response compared to reference", "setting": "[5]; EEE 10 µM", "value": 0.335}, {"measurement": "Gal9 response compared to reference", "setting": "[6]; EEE 0.31 µM", "value": 0.014}, {"measurement": "Gal9 response compared to reference", "setting": "[6]; EEE 0.62 µM", "value": 0.015}, {"measurement": "Gal9 response compared to reference", "setting": "[6]; EEE 1.25 µM", "value": 0.014}, {"measurement": "Gal9 response compared to reference", "setting": "[6]; EEE 2.5 µM", "value": 0.015}, {"measurement": "Gal9 response compared to reference", "setting": "[6]; EEE 5 µM", "value": 0.026}, {"measurement": "Gal9 response compared to reference", "setting": "[6]; EEE 10 µM", "value": 0.166}, {"measurement": "Gal9 response compared to reference", "setting": "[7]; EEE 0.31 µM", "value": 0.010}, {"measurement": "Gal9 response compared to reference", "setting": "[7]; EEE 0.62 µM", "value": 0.010}, {"measurement": "Gal9 response compared to reference", "setting": "[7]; EEE 1.25 µM", "value": 0.011}, {"measurement": "Gal9 response compared to reference", "setting": "[7]; EEE 2.5 µM", "value": 0.016}, {"measurement": "Gal9 response compared to reference", "setting": "[7]; EEE 5 µM", "value": 0.019}, {"measurement": "Gal9 response compared to reference", "setting": "[7]; EEE 10 µM", "value": 0.174}, {"measurement": "Gal9 response compared to reference", "setting": "[8]; EEE 0.31 µM", "value": 0.016}, {"measurement": "Gal9 response compared to reference", "setting": "[8]; EEE 0.62 µM", "value": 0.015}, {"measurement": "Gal9 response compared to reference", "setting": "[8]; EEE 1.25 µM", "value": 0.010}, {"measurement": "Gal9 response compared to reference", "setting": "[8]; EEE 2.5 µM", "value": 0.013}, {"measurement": "Gal9 response compared to reference", "setting": "[8]; EEE 5 µM", "value": 0.070}, {"measurement": "Gal9 response compared to reference", "setting": "[8]; EEE 10 µM", "value": 0.703}, {"measurement": "Luciferase expression compared to reference", "setting": "[9]; EEE 5 µM", "value": 7.300}, {"measurement": "Luciferase expression compared to reference", "setting": "[9]; EEE 1-1.25 µM", "value": 0.741}, {"measurement": "Luciferase expression compared to reference", "setting": "[9]; EEE 2.5 - 3 µM", "value": 1.920}]}
